Measured values published in patent US10167269B2, “Cockroach attraction-aggregation substance, cockroach aggregation attractant and cockroach controlling agent” (Kyoto University, priority 2013, dated 2019).

test system: cockroaches; experiment: biological test using the linear track olfactometer (attraction-aggregation activity); format: in vivo, American cockroaches; conditions: Test Example 1; dose 10^2 pg; EPI=(NS-NC)/(NS+NC)
Excerpt: The method for determining the activity of the cockroach attraction-aggregation substance is not particularly limited herein, and the activity may be determined by, for example, a biological test using a linear track olfactometer (FIG. 1).
An olfactometer (linear track olfactometer) is typically an instrument used to conduct bioassays to observe the response of insects to volatiles. The instrument has a bifurcation at which air flow containing an attractant substance attracts the insect subjects (see, e.g., J. Jpn. For. Soc., 89(2), 2007, “An Olfactometer Testing the Olfactory Response of the Japanese Horntail Urocerus japonicus to Volatiles.”, 135-137, and Nogyo Kankyo Kenkyu Sosho, Vol. 17, “Nogyo Seitaikei no Hozen ni Muketa Seibutsu Kino no Katsuyo”, 108-134).
A biological test with a linear track olfactometer will be specifically described below. In FIG. 1, air suction from the top 1 of the central tube allows air to enter from the tops (2a and 2b) of the right and left tubes, thereby air flows are generated from the both sides, flowing through the horizontal tube toward the top of the central tube. The left tube is the control side, and the right tube is the sample side. Insect subjects (7 to 10 day-old larvae) are placed at the bottom 4 of the central tube. Air is then slowly suctioned from the top of the central tube with a pump (2.5 L/min). The insect subjects are allowed to freely move for 5 minutes at 25±1° C. at a relative humidity of 40 to 60% in total darkness. The numbers of the insect subjects that have moved to the control side and to the sample side are counted. The excess proportion index (EPI) is calculated by the following equation: EPI=(NS−NC)/(NS+NC) (where NS is the number of the insect subjects that have moved to the sample side; and NC is the number of the insect subjects that have moved to the control side).
An EPI closer to 1 indicates higher attraction-aggregation activity on cockroaches.
In the examples, the attraction-aggregation activity on cockroaches was determined by a biological test using the above-described linear track olfactometer (FIG. 1).

| Structure (SMILES) | EPI value |
| --- | --- |
| CCC1Cc2cc(C)c(C)c(O)c2C(=O)O1 (stereo not drawn) [Example 5, 3,4-dihydro-8-hydroxy-3-ethyl-6,7-dimethyl-1H-2-benzopyran-1-one] | about 0.5 |

same assay, conditions: Test Example 1; even at a dose of 10^6 pg

| Structure (SMILES) | attraction-aggregation activity on cockroaches |
| --- | --- |
| CCC1Cc2cc(C)c(C)c(OC)c2C(=O)O1 (stereo not drawn) [Comparative Example 1, reference compound] | no activity |

same assay, conditions: Test Example 5; compounds isolated from frass in Example 24

| Structure (SMILES) | attraction-aggregation activity on cockroaches |
| --- | --- |
| Cc1ccc2c(c1O)C(=O)O[C@H](C)[C@H]2C (relative stereo) [PLD-A, (trans)-3,4-dihydro-8-hydroxy-3,4,7-trimethyl-1H-2-benzopyran-1-one] | high attraction-aggregation activity |
| Cc1ccc2c(c1O)C(=O)O[C@@H](C)[C@H]2C (relative stereo) [PLD-B, (cis)-3,4-dihydro-8-hydroxy-3,4,7-trimethyl-1H-2-benzopyran-1-one] | high attraction-aggregation activity |
| CC[C@H]1OC(=O)c2c(ccc(C)c2O)[C@@H]1C (relative stereo) [PLD-C, (trans)-3,4-dihydro-8-hydroxy-4,7-dimethyl-3-ethyl-1H-2-benzopyran-1-one] | high attraction-aggregation activity |
| CC[C@@H]1OC(=O)c2c(ccc(C)c2O)[C@@H]1C (relative stereo) [PLD-D, (cis)-3,4-dihydro-8-hydroxy-4,7-dimethyl-3-ethyl-1H-2-benzopyran-1-one] | high attraction-aggregation activity |
| CCC(C)C1Cc2c(C)cc(C)c(O)c2C(=O)O1 (stereo not drawn) [PLD-E, 3,4-dihydro-8-hydroxy-3-(1-methylpropyl)-5,7-dimethyl-1H-2-benzopyran-1-one] | high attraction-aggregation activity |
| CCCC(C)C1Cc2c(C)cc(C)c(O)c2C(=O)O1 (stereo not drawn) [PLD-F, 3,4-dihydro-8-hydroxy-3-(1-methylbutyl)-5,7-dimethyl-1H-2-benzopyran-1-one] | high attraction-aggregation activity |

same assay, conditions: Test Examples 1 and 4; doses ranging from 10^-3 pg to 10^6 pg; 7 to 10 day-old larvae, 5 minutes

| Structure (SMILES) | attraction-aggregation activity on cockroaches |
| --- | --- |
| CCC1Cc2cc(C)c(C)c(O)c2C(=O)O1 (stereo not drawn) [Example 5, 3,4-dihydro-8-hydroxy-3-ethyl-6,7-dimethyl-1H-2-benzopyran-1-one] | high attraction-aggregation activity |
| Cc1ccc2c(c1O)C(=O)OC1CCCC21 (stereo not drawn) [Example 17, 2,3,3a,9b-tetrahydro-6-hydroxy-7-methyl-cyclopenta[c][2]benzopyran-5(1H)-one] | showed attraction-aggregation activity |
| Cc1ccc2c(c1O)C(=O)OC2 [Example 18, 7-hydroxy-6-methyl-1(3H)-isobenzofuranone] | showed attraction-aggregation activity |
| CC1Cc2cccc(O)c2C(=O)O1 (stereo not drawn) [Example 23, mellein] | high attraction-aggregation activity |

same assay, conditions: Test Examples 2 and 3; doses ranging from 10^-3 pg to 10^3 pg

| Structure (SMILES) | attraction-aggregation activity on cockroaches |
| --- | --- |
| CCC1Cc2ccc(C)c(O)c2C(=O)O1 (stereo not drawn) [Example 3, 3,4-dihydro-8-hydroxy-3-ethyl-7-methyl-1H-2-benzopyran-1-one] | high attraction-aggregation activity |
| CCC1Cc2c(C)cc(C)c(O)c2C(=O)O1 (stereo not drawn) [Example 4, 3,4-dihydro-8-hydroxy-3-ethyl-5,7-dimethyl-1H-2-benzopyran-1-one] | high attraction-aggregation activity |
| Cc1ccc2c(c1O)C(=O)OC(C)C2 (stereo not drawn) [step 1-4 of Example 1, 3,4-dihydro-8-hydroxy-3,7-dimethyl-1H-2-benzopyran-1-one] | high attraction-aggregation activity |
